Assays:
Rattus norvegicus [1] = experiment: Antihypertensive activity in spontaneously hypertensive Rattus norvegicus (rat) assessed as reduced systolic blood pressure at 1 mg/kg intragastrically administered; assay type: functional, Artery; details: route intragastric
Rattus norvegicus [2] = experiment: Antihypertensive activity in spontaneously hypertensive Rattus norvegicus (rat) assessed as reduced systolic blood pressure at 2 mg/kg intragastrically administered measured at 4 hr post compound treatment (reference value: -1 +/- 3 mmHg); assay type: functional, Artery; details: route intragastric
Rattus norvegicus [3] = experiment: Antihypertensive activity in spontaneously hypertensive Rattus norvegicus (rat) assessed as reduced systolic blood pressure at 0.5 mg/kg intragastrically administered measured at 1 hr post compound treatment (reference value: 1 +/- 3 mmHg); assay type: functional, Artery; details: route intragastric
Rattus norvegicus [4] = experiment: Antihypertensive activity in spontaneously hypertensive Rattus norvegicus (rat) assessed as reduced systolic blood pressure at 2 mg/kg intragastrically administered measured at 1 hr post compound treatment (reference value: 1 +/- 3 mmHg); assay type: functional, Artery; details: route intragastric
Rattus norvegicus [5] = experiment: Antihypertensive activity in spontaneously hypertensive Rattus norvegicus (rat) assessed as reduced systolic blood pressure at 1 mg/kg intragastrically administered measured at 4 hr post compound treatment (reference value: -1 +/- 3 mmHg); assay type: functional, Artery; details: route intragastric
Rattus norvegicus [6] = experiment: Antihypertensive activity in spontaneously hypertensive Rattus norvegicus (rat) assessed as reduction in systolic blood pressure compound intragastrically administered measured at 1 to 20 hr post compound treatment; assay type: functional, organism-based; details: Artery
Rattus norvegicus [7] = experiment: Antihypertensive activity in spontaneously hypertensive Rattus norvegicus (rat) assessed as reduced systolic blood pressure at 2 mg/kg intragastrically administered measured at 8 hr post compound treatment (reference value: -3 +/- 3 mmHg); assay type: functional, Artery; details: route intragastric
Rattus norvegicus [8] = experiment: Antihypertensive activity in spontaneously hypertensive Rattus norvegicus (rat) assessed as reduced systolic blood pressure at 1 mg/kg intragastrically administered measured at 6 hr post compound treatment (reference value: -2 +/- 3 mmHg); assay type: functional, Artery; details: route intragastric
Rattus norvegicus [9] = experiment: Antihypertensive activity in spontaneously hypertensive Rattus norvegicus (rat) assessed as reduced systolic blood pressure at 2 mg/kg intragastrically administered measured at 6 hr post compound treatment (reference value: -2 +/- 3 mmHg); assay type: functional, Artery; details: route intragastric
Rattus norvegicus [10] = experiment: Antihypertensive activity in spontaneously hypertensive Rattus norvegicus (rat) assessed as reduced systolic blood pressure at 1 mg/kg intragastrically administered measured at 2 hr post compound treatment (reference value: -1 +/- 2 mmHg); assay type: functional, Artery; details: route intragastric
Rattus norvegicus [11] = experiment: Antihypertensive activity in spontaneously hypertensive Rattus norvegicus (rat) assessed as reduced systolic blood pressure at 2 mg/kg intragastrically administered measured at 20 hr post compound treatment (reference value: -2 +/- 4 mmHg); assay type: functional, Artery; details: route intragastric
Rattus norvegicus [12] = experiment: Antihypertensive activity in spontaneously hypertensive Rattus norvegicus (rat) assessed as reduced systolic blood pressure at 1 mg/kg intragastrically administered measured at 1 hr post compound treatment (reference value: 1 +/- 3 mmHg); assay type: functional, Artery; details: route intragastric
Rattus norvegicus [13] = experiment: Antihypertensive activity in spontaneously hypertensive Rattus norvegicus (rat) assessed as reduced systolic blood pressure at 2 mg/kg intragastrically administered measured at 2 hr post compound treatment (reference value: -1 +/- 2 mmHg); assay type: functional, Artery; details: route intragastric

**Q.** `CCCCN(C)C(=O)/C=C/c1ccccc1C1C(C(=O)OCC)=C(C)NC(C)=C1C(=O)OCC` was tested. Which Activity (Rattus norvegicus [1]) did it give?
**A.** 27 mmHg

**Q.** For `CCOC(=O)C1=C(C)NC(C)=C(C(=O)OCC)C1c1ccccc1/C=C/C(=O)N1CCCCC1`, which Activity (Rattus norvegicus [1]) is on record?
**A.** 22 mmHg

**Q.** For `CCOC(=O)C1=C(C)NC(C)=C(C(=O)OCC)C1c1ccccc1/C=C/C(=O)NC(C)(C)C`, which Activity (Rattus norvegicus [1]) is on record?
**A.** 44 mmHg

**Q.** With `CCOC(=O)C1=C(C)NC(C)=C(C(=O)OCC)C1c1ccccc1/C=C/C(=O)OC(C)(C)C` [LACIDIPINE] as the molecule, how does the Activity (Rattus norvegicus [1]) read?
**A.** 50 mmHg

**Q.** What does the source list for `CCOC(=O)C1=C(C)NC(C)=C(C(=O)OCC)C1c1ccccc1/C=C/C(=O)N(C)C(C)(C)C`?
**A.** Activity (Rattus norvegicus [2]): 47 mmHg; Activity (Rattus norvegicus [3]): 11 mmHg; Activity (Rattus norvegicus [4]): 44 mmHg; Activity (Rattus norvegicus [1]): 46 mmHg; Activity (Rattus norvegicus [5]): 20 mmHg; Activity (Rattus norvegicus [6]): Dose-dependent effect; Activity (Rattus norvegicus [7]): 43 mmHg; Activity (Rattus norvegicus [8]): 3 mmHg; Activity (Rattus norvegicus [9]): 45 mmHg; Activity (Rattus norvegicus [10]): 34 mmHg; Activity (Rattus norvegicus [11]): 25 mmHg; Activity (Rattus norvegicus [12]): 46 mmHg; Activity (Rattus norvegicus [13]): 53 mmHg

**Q.** `CCOC(=O)C1=C(C)NC(C)=C(C(=O)OCC)C1c1ccccc1/C=C/C(=O)N(CC)CC` was tested. Which Activity (Rattus norvegicus [1]) did it give?
**A.** 33 mmHg

**Q.** `CCOC(=O)C1=C(C)NC(C)=C(C(=O)OCC)C1c1ccccc1/C=C/C(=O)NCC(C)C` was tested. Which Activity (Rattus norvegicus [1]) did it give?
**A.** 15 mmHg

— ChEMBL document CHEMBL3044564, “Synthesis and antihypertensive activity evaluation in spontaneously hypertensive rats of lacidipine analogues” (2012)
